Values joined by “and” are separate entries in the source; they are usually repeats but may differ in a detail not shown here. Equal values may be shown once. Read-outs that look alike come from different tables or passages of the source.
What was measured:
[1] = biological target: DRD2 (D2 long receptor) wild-type (Homo sapiens, UniProt P14416); test: Radioligand competition binding, [3H]-N-methylspiperone, HEK293T membranes
DRD3 wild-type = DRD3 wild-type (Homo sapiens, UniProt P35462); test: Radioligand competition binding, [3H]-N-methylspiperone
[2] = biological target: T1, DRD4 (D4.4 variant) wild-type (Homo sapiens, UniProt P21917); test: as above; conditions: DRD4; [3H]-methylspiperone (0.8-1.0 nM); read-out: Ki
T1 sequence (P21917 1-419): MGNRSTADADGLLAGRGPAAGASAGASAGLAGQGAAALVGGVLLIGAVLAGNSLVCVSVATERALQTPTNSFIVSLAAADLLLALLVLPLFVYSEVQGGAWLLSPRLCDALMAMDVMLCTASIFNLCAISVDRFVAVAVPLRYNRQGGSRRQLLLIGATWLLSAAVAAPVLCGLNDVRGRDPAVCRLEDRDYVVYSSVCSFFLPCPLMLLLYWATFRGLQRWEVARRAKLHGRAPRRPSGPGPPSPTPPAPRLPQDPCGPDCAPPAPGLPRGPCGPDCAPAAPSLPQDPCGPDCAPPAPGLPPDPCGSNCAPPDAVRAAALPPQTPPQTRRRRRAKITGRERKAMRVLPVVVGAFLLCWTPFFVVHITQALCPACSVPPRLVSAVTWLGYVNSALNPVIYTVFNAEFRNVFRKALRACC

DRD3 F1063.28A [3] = biological target: T2, DRD3 F1063.28A (Homo sapiens, UniProt P35462, F106A); test: biochemical; format: binding
DRD2 (D2 long receptor) [4] = biological target: T3, DRD2 (D2 long receptor) (Homo sapiens, UniProt P14416); test: Gαi/o-mediated cAMP inhibition (GloSensor split-luciferase cAMP reporter), HEK293T; format: cell-based; conditions: for response, Fig_S11d dose-response source data: replicate values;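 on all read-outs here: compounds applied 15 min at room temperature, then luciferin plus 400 nM isoproterenol to raise cAMP through endogenous β2-adrenergic receptors, luminescence read 15 min later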
DRD4 (D4.4 variant) [5] = biological target: T4, DRD4 (D4.4 variant) (Homo sapiens, UniProt P21917); test: Gαi/o-mediated cAMP inhibition (GloSensor); format: cell-based; conditions: DRD4; agonist, cAMP inhibition; read-out: EC50 ± SEM
T4 sequence (P21917 1-419): T1 sequence (P21917 1-419)

DRD2 F1103.28L [6] = biological target: T5, DRD2 F1103.28L (Homo sapiens, UniProt P14416, F110L); test: Gαi/o-mediated cAMP inhibition (GloSensor), mutant; format: cell-based; conditions: DRD2 F1103.28L (b138 head prints DRD2 F1063.28L)
T5 construct: expressed in transfected cells; host or cells: HEK293T (ATCC CRL-11268)

DRD2 (D2 long receptor) [7] = biological target: T3, DRD2 (D2 long receptor); test: β-arrestin2 recruitment (Tango), HTLA cells; format: cell-based
DRD3 = DRD3 (Homo sapiens, UniProt P35462); test: β-arrestin2 recruitment (Tango); format: cell-based; conditions: DRD3; Tango; read-out: EC50 ± SEM
DRD4 (D4.4 variant) [8] = biological target: T4, DRD4 (D4.4 variant); test: β-arrestin2 recruitment (Tango); format: cell-based; conditions: DRD4; Tango; read-out: EC50 ± SEM
DRD2 F1103.28L [9] = biological target: T5, DRD2 F1103.28L; test: β-arrestin2 recruitment (Tango), mutant; format: cell-based
DRD3 F1063.28A [10] = biological target: T2, DRD3 F1063.28A; test: cell-based; format: cell-based; conditions: DRD3 F1063.28A; Tango; read-out: EC50 ± SEM
DRD2 F1103.28A [11] = biological target: T6, DRD2 F1103.28A (Homo sapiens, UniProt P14416, F110A); format: binding; set-up: expressed in transfected cells; host or cells: HEK293T (ATCC CRL-11268)
DRD2 F1103.28A [12] = biological target: T6, DRD2 F1103.28A; test: Gαi/o-mediated cAMP inhibition (GloSensor), mutant; format: cell-based; set-up: expressed in transfected cells; host or cells: HEK293T (ATCC CRL-11268)
DRD2 F1103.28A [13] = biological target: T6, DRD2 F1103.28A; test: β-arrestin2 recruitment (Tango), mutant; format: cell-based; set-up: expressed in transfected cells; host or cells: HEK293T (ATCC CRL-11268)

T2 sequence (P35462 whole entry F106A): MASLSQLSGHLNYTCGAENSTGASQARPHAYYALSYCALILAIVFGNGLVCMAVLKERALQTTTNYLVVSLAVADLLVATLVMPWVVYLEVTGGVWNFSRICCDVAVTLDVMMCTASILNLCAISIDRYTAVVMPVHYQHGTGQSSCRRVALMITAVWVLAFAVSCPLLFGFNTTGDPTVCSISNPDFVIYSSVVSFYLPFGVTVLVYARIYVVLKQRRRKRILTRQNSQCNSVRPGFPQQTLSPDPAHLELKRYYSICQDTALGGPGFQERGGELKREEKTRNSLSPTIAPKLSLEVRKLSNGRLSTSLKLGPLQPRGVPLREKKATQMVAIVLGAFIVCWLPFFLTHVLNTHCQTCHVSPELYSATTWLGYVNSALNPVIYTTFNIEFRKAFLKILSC
T6 sequence (P14416 whole entry F110A): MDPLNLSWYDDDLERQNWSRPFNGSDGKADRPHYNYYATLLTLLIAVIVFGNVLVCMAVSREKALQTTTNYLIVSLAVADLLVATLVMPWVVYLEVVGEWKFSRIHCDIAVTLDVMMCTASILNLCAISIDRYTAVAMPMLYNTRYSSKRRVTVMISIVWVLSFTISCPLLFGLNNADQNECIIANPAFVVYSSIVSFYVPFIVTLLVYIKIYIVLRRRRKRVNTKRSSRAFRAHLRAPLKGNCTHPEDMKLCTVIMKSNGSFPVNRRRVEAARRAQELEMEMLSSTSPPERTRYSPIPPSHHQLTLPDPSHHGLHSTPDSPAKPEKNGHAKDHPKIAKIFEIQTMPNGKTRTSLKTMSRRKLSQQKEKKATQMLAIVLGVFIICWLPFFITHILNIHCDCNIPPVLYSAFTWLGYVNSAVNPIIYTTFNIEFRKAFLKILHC
T3 sequence (P14416 whole entry): as the sequence (P14416 whole entry F110A) above, with A110F counted along it
T5 sequence (P14416 whole entry F110L): as the sequence (P14416 whole entry F110A) above, with A110L counted along it
Chain of DRD3 wild-type (P35462 whole entry): as the sequence (P35462 whole entry F106A) above, with A106F counted along it
Chain of DRD2 (D2 long receptor) wild-type (P14416 whole entry): as the sequence (P14416 whole entry F110A) above, with A110F counted along it
Chain of DRD3 (P35462 whole entry): as the sequence (P35462 whole entry F106A) above, with A106F counted along it

Compound: CCOc1cccc2cc(C(C)NCC3(O)CCCC3)oc12.Cl (racemic) [O4LE5]
- Ki ([1]; DRD2, [3H]-methylspiperone (0.8-1.0 nM), read-out: Ki): 9.55 µM
- pKi ± SEM ([1]; DRD2 wild-type): 5.02±0.07
- Ki (DRD3 wild-type; DRD3, [3H]-methylspiperone (0.8-1.0 nM), read-out: Ki): 1020 nM
- pKi ± SEM (DRD3 wild-type; DRD3 wild-type): 5.99±0.02
- Ki [2]: > 10 µM
- pKi ± SEM (DRD3 F1063.28A [3]; DRD3 F1063.28A): 5.37±0.13
- Ki (DRD3 F1063.28A [3]; DRD3 F1063.28A, read-out: Ki): 4.27 µM
- affinity decreased, mutant vs wild type (DRD3 F1063.28A [3]; DRD3 Phe106^3.28Ala vs wild-type DRD3): 4.19 fold
- EC50 (DRD2 (D2 long receptor) [4]; DRD2, agonist, Gαi/o-mediated cAMP inhibition, read-out: EC50 ± SEM): 20.3 ± 9.06 nM
- Emax relative to quinpirole response (DRD2 (D2 long receptor) [4]; DRD2, cAMP inhibition): 90.02%
- response, Fig_S11d dose-response source data (DRD2 (D2 long receptor) [4]; Log[Drug] -6.52): 89.8047
- response, Fig_S11d dose-response source data (DRD2 (D2 long receptor) [4]; Log[Drug] -7): 65.0385 and 57.9248 and 60.2207 and 80.9341 and 74.6312 and 79.279 and 82.9188 and 82.7948 and 77.3857
- response, Fig_S11d dose-response source data (DRD2 (D2 long receptor) [4]; Log[Drug] -7.52): 39.5571 and 33.4973 and 24.3511 and 57.6284 and 63.6471 and 63.1957 and 71.0585 and 72.7209 and 64.8058
- response, Fig_S11d dose-response source data (DRD2 (D2 long receptor) [4]; Log[Drug] -8): 9.5215 and 11.2717 and 13.7182 and 48.383 and 49.6202 and 44.9055 and 35.7008 and 48.9506 and 59.4463
- response, Fig_S11d dose-response source data (DRD2 (D2 long receptor) [4]; Log[Drug] -8.52): -3.6708 and -0.0387 and -1.4878 and 27.1503 and 28.8723 and 39.8732 and 29.7954 and 40.3159 and 28.6789
- response, Fig_S11d dose-response source data (DRD2 (D2 long receptor) [4]; Log[Drug] -9): 6.661 and 7.056 and -0.9609 and 40.0738 and 31.9486 and 25.4952 and 24.1382 and 31.3586 and 28.8029
- response, Fig_S11d dose-response source data (DRD2 (D2 long receptor) [4]; Log[Drug] -9.52): 12.3068 and -0.3586 and -16.1104 and 30.2934 and 20.4294 and 33.0687 and 10.7891 and 20.7389 and 17.29
- response, Fig_S11d dose-response source data (DRD2 (D2 long receptor) [4]; Log[Drug] -10): -16.468 and 1.297 and -13.024 and 16.0491 and 30.494 and 18.4566 and 11.0621 and 15.5283 and 8.9282
- response, Fig_S11d dose-response source data (DRD2 (D2 long receptor) [4]; Log[Drug] -10.52): -14.0967 and 4.779 and -14.8495 and 16.7012 and 24.0741 and 20.5632 and 2.204 and 13.0967 and 9.052
- response, Fig_S11d dose-response source data (DRD2 (D2 long receptor) [4]; Log[Drug] -11): -2.7111 and 12.7961 and -15.5834 and 17.8548 and 27.4178 and 14.9457 and -4.6938 and 9.499 and 12.5508
- response, Fig_S11d dose-response source data (DRD2 (D2 long receptor) [4]; Log[Drug] -11.52): -7.9428 and 7.113 and -8.1498 and 19.6269 and 38.218 and 27.7856 and 20.6149 and 38.3557 and 9.623
- response, Fig_S11d dose-response source data (DRD2 (D2 long receptor) [4]; Log[Drug] -12): -24.8425 and -18.4063 and -14.0215 and 7.974 and -7.6244 and -4.264 and -3.478 and -21.2934 and -10.4999
- EC50 (DRD4 (D4.4 variant) [5]): > 10 µM
- EC50 (DRD2 F1103.28L [6]): > 10 µM
- response, Fig_S11e dose-response source data (DRD2 (D2 long receptor) [7]): 4.195 and 4.191
- Emax relative to quinpirole response (DRD2 (D2 long receptor) [7]; DRD2, Tango): 69.77%
- EC50 (DRD2 (D2 long receptor) [7]; DRD2, β-arrestin2 recruitment (Tango), read-out: EC50 ± SEM): 591 ± 160 nM
- response, Fig_S11e dose-response source data (DRD2 (D2 long receptor) [7]; Fig_S11e, Log[Drug] -6.52, replicate values): 29.7819
- response, Fig_S11e dose-response source data (DRD2 (D2 long receptor) [7]; Fig_S11e, Log[Drug] -7, replicate values): 14.8195 and 15.4716 and 11.9245 and 14.4902 and 10.6077 and 13.3375 and 15.5705 and 13.1474 and 10.3991
- response, Fig_S11e dose-response source data (DRD2 (D2 long receptor) [7]; Fig_S11e, Log[Drug] -7.52, replicate values): 5.649 and 7.617 and 8.153 and 5.088 and 5.357 and 5.685 and 6.459 and 7.136 and 7.327
- response, Fig_S11e dose-response source data (DRD2 (D2 long receptor) [7]; Fig_S11e, Log[Drug] -8, replicate values): 4.53 and 4.924 and 7.437 and 4.448 and 4.588 and 4.761 and 4.942 and 5.222 and 4.354
- response, Fig_S11e dose-response source data (DRD2 (D2 long receptor) [7]; Fig_S11e, Log[Drug] -8.52, replicate values): 5.418 and 3.578 and 5.097 and 4.558 and 4.204 and 3.944 and 4.259 and 4.448
- response, Fig_S11e dose-response source data (DRD2 (D2 long receptor) [7]; Fig_S11e, Log[Drug] -9, replicate values): 5.551 and 4.294 and 3.766 and 4.187 and 3.973 and 4.022 and 3.996 and 4.409 and 5.115
- response, Fig_S11e dose-response source data (DRD2 (D2 long receptor) [7]; Fig_S11e, Log[Drug] -9.52, replicate values): 3.774 and 3.895 and 3.825 and 3.992 and 4.187 and 3.4742 and 3.994 and 4.11
- response, Fig_S11e dose-response source data (DRD2 (D2 long receptor) [7]; Fig_S11e, Log[Drug] -10, replicate values): 3.543 and 4.048 and 4.417 and 4.083 and 4.005 and 3.8893 and 4.472 and 4.295 and 4.703
- response, Fig_S11e dose-response source data (DRD2 (D2 long receptor) [7]; Fig_S11e, Log[Drug] -10.52, replicate values): 4.321 and 3.611 and 3.873 and 3.908 and 3.996 and 3.919 and 3.699 and 4.48 and 4.116
- response, Fig_S11e dose-response source data (DRD2 (D2 long receptor) [7]; Fig_S11e, Log[Drug] -11, replicate values): 3.51 and 3.391 and 4.782 and 4.294 and 4.024 and 3.997 and 3.756 and 4.401 and 4.222
- response, Fig_S11e dose-response source data (DRD2 (D2 long receptor) [7]; Fig_S11e, Log[Drug] -11.52, replicate values): 3.707 and 4 and 3.724 and 4.053 and 3.84 and 3.862 and 4.291 and 4.0833 and 3.6644
- response, Fig_S11e dose-response source data (DRD2 (D2 long receptor) [7]; Fig_S11e, Log[Drug] -12, replicate values): 4.3048 and 3.879 and 4.62 and 3.975 and 4.688 and 4.168 and 3.647 and 4.316 and 4.328
- EC50 (DRD3): > 10 µM
- EC50 (DRD4 (D4.4 variant) [8]): > 10 µM
- EC50 (DRD2 F1103.28L [9]): > 10 µM
- EC50 (DRD3 F1063.28A [10]): > 10 µM
- pKi ± SEM (DRD2 F1103.28A [11]; DRD2 F1103.28A): 6.03±0.14
- Ki (DRD2 F1103.28A [11]; DRD2 F1103.28A, read-out: Ki): 930 nM
- affinity increase (binding enhanced), mutant vs wild type (DRD2 F1103.28A [11]; DRD2 Phe110^3.28Ala vs wild-type DRD2): 10.27 fold
- EC50 (DRD2 F1103.28A [12]): 0.05 ± 0.04 nM
- Emax relative to quinpirole response (DRD2 F1103.28A [12]): 13.66%
- EC50 (DRD2 F1103.28A [13]): > 10 µM
